Values after ≈ are worked out from the molar mass of the structure shown.
Columns and labels:
Type in all cases: cell-based
E. coli, NIHJ = experiment: Antibacterial activity (MIC), E. coli NIHJ; conditions: for MIC: Escherichia coli
Description: (§1) The antibacterial activity assays were performed by the method specified by Japan Society of Chemotherapy (Chemotherapy 29(1), 76 (1981). The table of antibacterial activity is followed by the reaction schemes for the synthesis of various spiro ring-containing cyclic amine derivatives, intermediate compounds for synthesis of quinolone rings and synthesis of various spiro compounds.

S. flexneri, 2A 5503 = experiment: Antibacterial activity (MIC), S. flexneri 2A 5503; conditions: for MIC: Shigella flexneri, 2A5503
Description: as §1

Pr. vulgaris, 08601 = experiment: Antibacterial activity (MIC), Pr. vulgaris 08601; conditions: for MIC: Proteus vulgaris
Description: as §1

Pr. mirabillis, IF0-3849 = experiment: Antibacterial activity (MIC), Pr. mirabillis IF0-3849
Description: as §1

Ser. marcescens, 10100 = experiment: Antibacterial activity (MIC), Ser. marcescens 10100; conditions: for MIC: Serratia marcescens, 10100, Ser. marcescens; for Antibacterial Activity (MIC): Ser. marcescens
Description: as §1

Ps. aeruginosa, 32104 = experiment: Antibacterial activity (MIC), Ps. aeruginosa 32104; conditions: for Antibacterial Activity (MIC): Ps. aeruginosa; for MIC: Pseudomonas aeruginosa, 32104, Ps. aeruginosa
Description: as §1

Ps. aeruginosa, 32121 = experiment: Antibacterial activity (MIC), Ps. aeruginosa 32121; conditions: for MIC: Pseudomonas aeruginosa, 32121, Ps. aeruginosa; for Antibacterial Activity (MIC): Ps. aeruginosa
Description: as §1

[1] = test system: Ps. maltophilia, IID-1275; experiment: Antibacterial activity (MIC), Ps. maltophilia IID-1275; conditions: for MIC: Stenotrophomonas maltophilia, IID1275, Ps. maltophilia; for Antibacterial Activity (MIC): Ps. maltophilia
Description: as §1

S. aureus, 209P = experiment: Antibacterial activity (MIC), S. aureus 209P; conditions: for MIC: Staphylococcus aureus
Description: as §1

S. epidermidis, 56500 = experiment: Antibacterial activity (MIC), S. epidermidis 56500; conditions: for Antibacterial Activity (MIC): S. epidermidis; for MIC: Staphylococcus epidermidis, 56500, S. epidermidis
Description: as §1

Str. pyogenes, G-36 = experiment: Antibacterial activity (MIC), Str. pyogenes G-36; conditions: for Antibacterial Activity (MIC): Str. pyogenes; for MIC: Streptococcus pyogenes, G36, Str. pyogenes
Description: as §1

[2] = test system: Str. faecalis, ATCC-19433; experiment: Antibacterial activity (MIC), Str. faecalis ATCC-19433; conditions: for Antibacterial Activity (MIC): Str. faecalis; for MIC: Enterococcus faecalis, ATCC19433, Str. faecalis
Description: as §1

SMILES	MIC (E. coli, NIHJ) [µg/mL]	MIC (S. flexneri, 2A 5503) [µg/mL]	MIC (Pr. vulgaris, 08601) [µg/mL]	MIC (Pr. mirabillis, IF0-3849) [µg/mL]	MIC (Ser. marcescens, 10100) [µg/mL]	MIC (Ps. aeruginosa, 32121) [µg/mL]	MIC [1] [µg/mL]	MIC (S. aureus, 209P) [µg/mL]	MIC (Ps. aeruginosa, 32104) [µg/mL]	MIC (S. epidermidis, 56500) [µg/mL]	MIC (Str. pyogenes, G-36) [µg/mL]	MIC [2] [µg/mL]	other results
NC1CN(c2c(F)cc3c(=O)c(C(=O)O)cn(C4CC4)c3c2F)CC12CC2 (single isomer, unassigned; (+)) [Compound 31a, (+)-7-(7-Amino-5-azaspiro[2.4]heptan-5-yl)-1-cyclopropyl-6,8-difluoro-1,4-dihydro-4-oxoquinoline-3-carboxylic Acid]	≤ 0.05	≤ 0.05	≤ 0.05	0.1 (≈ 0.266 µM)	≤ 0.05	0.1 (≈ 0.266 µM)	0.1 (≈ 0.266 µM)	0.1 (≈ 0.266 µM)					Antibacterial Activity (MIC) (Ps. aeruginosa, 32104): 0.20 µg/mL; Antibacterial Activity (MIC) (S. epidermidis, 56500): 0.39 µg/mL; Antibacterial Activity (MIC) (Str. pyogenes, G-36): 1.57 µg/mL; Antibacterial Activity (MIC) [2]: 0.79 µg/mL
C[C@H]1COc2c(N3CC(N)C4(CC4)C3)c(F)cc3c(=O)c(C(=O)O)cn1c23 (single isomer, unassigned; (-)) [Compound 36b]	≤ 0.05	≤ 0.05	≤ 0.05	0.1 (≈ 0.268 µM)	0.2 (≈ 0.536 µM)	0.1 (≈ 0.268 µM)	0.39 (≈ 1.04 µM)	≤ 0.05	0.2 (≈ 0.536 µM)	0.1 (≈ 0.268 µM)	0.39 (≈ 1.04 µM)	0.39 (≈ 1.04 µM)	
NC1CN(c2nc3c(cc2F)c(=O)c(C(=O)O)cn3C2CC2)CC12CC2 (single isomer, unassigned; (-)) [Compound 35b, (-)-7-(7-Amino-5-azaspiro[2.4]heptan-5-yl)-1-cyclopropyl-6-fluoro-4-oxo-1,4-dihydro-1,8-naphthyridine-3-carboxylic acid]	≤ 0.05	≤ 0.05	≤ 0.05	≤ 0.05	≤ 0.05	≤ 0.05	≤ 0.05	≤ 0.05	≤ 0.05	0.1 (≈ 0.279 µM)	0.78 (≈ 2.18 µM)	0.39 (≈ 1.09 µM)	
NC1CN(c2c(F)cc3c(=O)c(C(=O)O)cn(C4CC4)c3c2Cl)CC12CC2 (single isomer, unassigned) [Compound 32b, 7-(7-amino-5-azaspiro[2.4]heptan-5-yl)-8-chloro-1-cyclopropyl-6-fluoro-1,4-dihydro-4-oxoquinoline-3-carboxylic acid]													Antibacterial Activity (MIC) (E. coli, NIHJ): ≤ 0.05 µg/mL; Antibacterial Activity (MIC) (S. flexneri, 2A 5503): ≤ 0.05 µg/mL; Antibacterial Activity (MIC) (Pr. vulgaris, 08601): ≤ 0.05 µg/mL; Antibacterial Activity (MIC) (Pr. mirabillis, IF0-3849): ≤ 0.05 µg/mL; Antibacterial Activity (MIC) (Ser. marcescens, 10100): ≤ 0.05 µg/mL; Antibacterial Activity (MIC) (Ps. aeruginosa, 32104): 0.10 µg/mL; Antibacterial Activity (MIC) (Ps. aeruginosa, 32121): ≤ 0.05 µg/mL; Antibacterial Activity (MIC) [1]: ≤ 0.05 µg/mL; Antibacterial Activity (MIC) (S. aureus, 209P): ≤ 0.05 µg/mL; Antibacterial Activity (MIC) (S. epidermidis, 56500): ≤ 0.05 µg/mL; Antibacterial Activity (MIC) (Str. pyogenes, G-36): 0.39 µg/mL; Antibacterial Activity (MIC) [2]: 0.10 µg/mL
NC1CN(c2c(F)cc3c(=O)c(C(=O)O)cn(C4CC4)c3c2Cl)CC12CC2 (racemic) [Compound 32, 7-(7-Amino-5-azaspiro[2.4]heptan-5-yl)-8-chloro-1-cyclopropyl-6-fluoro-1,4-dihydro-4-oxoquinoline-3-carboxylic Acid]	≤ 0.05	≤ 0.05	≤ 0.05	≤ 0.05	≤ 0.05	≤ 0.05	≤ 0.05	≤ 0.05	0.1 (≈ 0.255 µM)	0.1 (≈ 0.255 µM)	0.1 (≈ 0.255 µM)	0.1 (≈ 0.255 µM)	
NC1CN(c2c(F)cc3c(=O)c(C(=O)O)cn(C4CC4)c3c2F)CC12CC2 (stereo not drawn) [Compound 31, 7-(7-Amino-5-azaspiro[2.4]heptan-5-yl)-1-cyclopropyl-6,8-difluoro-1,4-dihydro-4-oxoquinoline-3-carboxylic Acid]	≤ 0.05	≤ 0.05	≤ 0.05	≤ 0.05	≤ 0.05	≤ 0.05	≤ 0.05	≤ 0.05	0.1 (≈ 0.266 µM)	0.1 (≈ 0.266 µM)	0.39 (≈ 1.04 µM)	0.2 (≈ 0.533 µM)	
O=C(O)c1cn(C2CC2)c2cc(N3CCNC4(CC4)C3)c(F)cc2c1=O [Compound 37, 1-Cyclopropyl-7-(4,7-diazaspiro[2.5]octan-7-yl)-6-fluoro-1,4-dihydro-4-oxoquinoline-3-carboxylic acid]	≤ 0.05	≤ 0.05	≤ 0.05	≤ 0.05	0.1 (≈ 0.28 µM)	0.2 (≈ 0.56 µM)	0.39 (≈ 1.09 µM)	0.2 (≈ 0.56 µM)	0.2 (≈ 0.56 µM)	0.39 (≈ 1.09 µM)	0.78 (≈ 2.18 µM)	0.78 (≈ 2.18 µM)	
C[C@H]1COc2c(N3CC(N)C4(CCC4)C3)c(F)cc3c(=O)c(C(=O)O)cn1c23 (stereo partly drawn) [Compound 98, 10-(8-Amino-6-azaspiro[3.4]octan-6-yl)-9-fluoro-2,3-dihydro-3-(S)-methyl-7-oxo-7H-pyrido[1,2,3-de][1,4]-benzoxazine-6-carboxylic acid]	≤ 0.05	≤ 0.05	≤ 0.05	0.2 (≈ 0.516 µM)	0.1 (≈ 0.258 µM)	0.2 (≈ 0.516 µM)	0.2 (≈ 0.516 µM)	≤ 0.05	0.39 (≈ 1.01 µM)	≤ 0.05	0.39 (≈ 1.01 µM)	0.2 (≈ 0.516 µM)	
N[C@@H]1CN(c2nc3c(cc2F)c(=O)c(C(=O)O)cn3-c2ccc(F)cc2F)CC12CC2 [Compound 111b, (-)-7-[7-(S)-amino-5-azaspiro[2.3]heptan-5-yl)-6-fluoro-1-(2,4-difluorophenyl)-1,4-dihydro-4-oxo-1,8-naphthyridine-3-carboxylate]	≤ 0.05	≤ 0.05	≤ 0.05	0.2 (≈ 0.465 µM)	0.1 (≈ 0.232 µM)	0.1 (≈ 0.232 µM)	0.2 (≈ 0.465 µM)	≤ 0.05	0.2 (≈ 0.465 µM)	0.1 (≈ 0.232 µM)	0.2 (≈ 0.465 µM)	0.39 (≈ 0.906 µM)	
NC1CN(c2c(F)cc3c(=O)c(C(=O)O)cn(C4CC4)c3c2F)CC12CCCC2 (stereo not drawn) [Compound 95, 7-(4-amino-2-azaspiro[4.4]nonan-2-yl)-1-cyclopropyl-6,8-difluoro-4-oxo-1,4-dihydroquinoline-3-carboxylic acid]	≤ 0.05	≤ 0.05	≤ 0.05	≤ 0.05	0.1 (≈ 0.248 µM)	0.2 (≈ 0.496 µM)	0.1 (≈ 0.248 µM)	≤ 0.05	0.39 (≈ 0.967 µM)	0.1 (≈ 0.248 µM)	0.2 (≈ 0.496 µM)	0.2 (≈ 0.496 µM)	
CC(C)(C)n1cc(C(=O)O)c(=O)c2cc(F)c(N3CC(N)C4(CC4)C3)nc21 (stereo not drawn) [Compound 41b, 7-(7-Amino-5-azaspiro[2.4]heptan-5-yl)-1,4-dihydro-6-fluoro-1-(2-methyl-2-propyl)-4-oxo-1,8-naphthyridine-3-carboxylic acid]	≤ 0.05	≤ 0.05	0.1 (≈ 0.267 µM)	0.2 (≈ 0.534 µM)	0.1 (≈ 0.267 µM)	0.1 (≈ 0.267 µM)	0.1 (≈ 0.267 µM)	≤ 0.05	0.2 (≈ 0.534 µM)	0.1 (≈ 0.267 µM)	0.39 (≈ 1.04 µM)	0.2 (≈ 0.534 µM)	
NC1CN(c2cc3c(cc2F)c(=O)c(C(=O)O)cn3-c2ccc(F)cc2F)CC12CC2 (stereo not drawn) [Compound 34, 7-(7-amino-5-azaspiro[2.4]heptan-5-yl)-6-fluoro-1-(2.4-difluorophenyl)-1,4-dihydro-4-oxoquinoline-3-carboxylic acid]	≤ 0.05	≤ 0.05	0.2 (≈ 0.466 µM)	0.39 (≈ 0.908 µM)	0.39 (≈ 0.908 µM)	0.2 (≈ 0.466 µM)	0.1 (≈ 0.233 µM)	0.1 (≈ 0.233 µM)	0.39 (≈ 0.908 µM)	0.2 (≈ 0.466 µM)	0.39 (≈ 0.908 µM)	0.78 (≈ 1.82 µM)	
C[C@H]1COc2c(N3CC(N)C4(CC4)C3)c(F)cc3c(=O)c(C(=O)O)cn1c23 (stereo partly drawn) [Compound 36, 10-(7-Amino-5-azaspiro[2.4]heptan-5-yl)-9-fluoro-2,3-dihydro-3-(S)-methyl-7-oxo-7H-pyrido[1,2,3-de][1.4]-benzoxazine-6-carboxylic acid]	≤ 0.05	≤ 0.05	≤ 0.05	0.1 (≈ 0.268 µM)	0.2 (≈ 0.536 µM)	0.1 (≈ 0.268 µM)	0.39 (≈ 1.04 µM)	0.1 (≈ 0.268 µM)	0.2 (≈ 0.536 µM)	0.2 (≈ 0.536 µM)	0.39 (≈ 1.04 µM)	0.78 (≈ 2.09 µM)	
NC1CN(c2c(F)cc3c(=O)c(C(=O)O)cn(C4CC4)c3c2F)CC12CC2 (single isomer, unassigned; (-)) [Compound 31b, (-)-7-(7-Amino-5-azaspiro[2.4]heptan-5-yl)-1-cyclopropyl-6,8-difluoro-1,4-dihydro-4-oxoquinoline-3-carboxylic Acid]													Antibacterial Activity (MIC) (E. coli, NIHJ): ≤ 0.05 µg/mL; Antibacterial Activity (MIC) (S. flexneri, 2A 5503): ≤ 0.05 µg/mL; Antibacterial Activity (MIC) (Pr. vulgaris, 08601): ≤ 0.05 µg/mL; Antibacterial Activity (MIC) (Pr. mirabillis, IF0-3849): ≤ 0.05 µg/mL; Antibacterial Activity (MIC) (Ser. marcescens, 10100): ≤ 0.05 µg/mL; Antibacterial Activity (MIC) (Ps. aeruginosa, 32104): ≤ 0.05 µg/mL; Antibacterial Activity (MIC) (Ps. aeruginosa, 32121): ≤ 0.05 µg/mL; Antibacterial Activity (MIC) [1]: ≤ 0.05 µg/mL; Antibacterial Activity (MIC) (S. aureus, 209P): ≤ 0.05 µg/mL; Antibacterial Activity (MIC) (S. epidermidis, 56500): ≤ 0.05 µg/mL; Antibacterial Activity (MIC) (Str. pyogenes, G-36): 0.10 µg/mL; Antibacterial Activity (MIC) [2]: 0.10 µg/mL

From patent US5508428A, “Spiro compound” (Daiichi Phamaceutical Co., Ltd., priority 1988, dated 1996)
